Structures can show the parent of a compound that is named as a salt. Where two headings read alike, the source gives them in different places. One block for each compound: values may come before it.
Key:
[1] = Azelastine hydrate production-suppressing effect of each of the additives (azelastine hydrochloride solutions, pH 8); type: physicochemical; design: key to Effect Against Production of Azelastine Hydrates: absolutely no hydrate formation; .largecircle.: absolutely no hydrate formation; Δ: hydrate formation decreased compared to the produced water; X: no hydrate production-suppressing effect; settings: for Effect Against Production of Azelastine Hydrates: 0.3 g azelastine hydrochloride in 100 ml, pH 8
Method: The azelastine hydrate production-suppressing effect was tested for each of the additives in azelastine hydro-chloride solutions. Each of the additives were added to 0.3 g of azelastine hydrochloride, the pH was adjusted to 8 with sodium hydroxide, and purified water was added to a total volume of 100 ml to determine whether or not azelastine hydrate crystals were produced. The identification of azelastine hydrate was carried out by filtering off the precipitates produced in the test solutions, drying them at room temperature, measuring thermal analysis (TG-DTA) (FIG. 1) and IR spectrum (azelastine hydrochloride reference standard: FIG. 2; azelastine hydrate: FIG. 3), and then comparing them to the standard.
Cases in which there was absolutely no hydrate formation are represented by [o], cases in which hydrate formation decreased compared to the produced water are represented by [Δ], and cases in which there was no hydrate production-suppressing effect are represented by [X].

[2] = dependence on pH; cited from earlier work
[3] = cited from earlier work
[4] = cited from earlier work; for percutaneous absorbability: technique of SHO 63-278108
[5] = cited from earlier work; remark: listed apart in the source

- Effect Against Production of Azelastine Hydrates ([1]; amount added 0.5%): .largecircle.
Structure (SMILES): CC/C=C\C/C=C\C/C=C\CCCCCCCC(=O)O [Linolenic Acid]

- Effect Against Production of Azelastine Hydrates ([1]; amount added 0.5%): .largecircle.
Structure (SMILES): CCCCCCCCCC(=O)O [Capric Acid]

- Effect Against Production of Azelastine Hydrates ([1]; amount added 0.5%): Δ
Structure (SMILES): CCCCCCCC(=O)O [Caprylic Acid]

- Effect Against Production of Azelastine Hydrates ([1]; amount added 0.5%): .largecircle.
Structure (SMILES): CCCCC/C=C\C/C=C\CCCCCCCC(=O)O [Linolic Acid]

Structure (SMILES): CCCCCCCCCCCCCCCCCCCCCC(=O)O [Behenic Acid]
- Effect Against Production of Azelastine Hydrates ([1]; amount added 0.5%): .largecircle.

- suppression of the production of azelastine hydrate (in words) [1]: not exhibited
- Effect Against Production of Azelastine Hydrates ([1]; amount added 0.5%): X
Structure (SMILES): CCCC(=O)O [Butyric Acid, reference compound]

Structure (SMILES): CCCCCCCC/C=C\CCCCCCCCCCCC(=O)O [Erucid Acid]
- Effect Against Production of Azelastine Hydrates ([1]; amount added 0.5%): .largecircle.

Structure (SMILES): CCCCCCCCCCCCCC(=O)O [Myristic Acid]
- Effect Against Production of Azelastine Hydrates ([1]; amount added 0.1%): Δ
- Effect Against Production of Azelastine Hydrates ([1]; amount added 0.3%): .largecircle.
- Effect Against Production of Azelastine Hydrates ([1]; amount added 0.5%): .largecircle.

Structure (SMILES): CN1[C@@H]2C[C@@H](OC(=O)[C@H](CO)c3ccccc3)C[C@H]1[C@@H]1O[C@@H]12 [scopolamine]
- percutaneous penetration speed [2]: in direct proportion to the pH

Structure (SMILES): CCCCCCCCCCCCCCCCCC(=O)O [Stearic Acid]
- Effect Against Production of Azelastine Hydrates ([1]; amount added 0.5%): .largecircle.

Structure (SMILES): CN1CCCC(n2nc(Cc3ccc(Cl)cc3)c3ccccc3c2=O)CC1 (stereo not drawn) [azelastine hydrochloride]
- solubility in solvents ([3]; solvents which may be used in pharmaceutical compositions): low solubility
- increase in absorbability ([4]; technique of SHO 61-254532): no increase in absorbability was observed
- percutaneous absorbability ([4]; amount of azelastine hydrochloride high compared to the base): marked improvement
- percutaneous absorbability ([4]; amount of azelastine hydrochloride low compared to the base): poor percutaneous absorbability

Structure (SMILES): CC(O)CO (stereo not drawn) [Propylene glycol, reference compound]
- Effect Against Production of Azelastine Hydrates ([1]; amount added 30%): X

- Effect Against Production of Azelastine Hydrates ([1]; amount added 30%): X
Structure (SMILES): CCO [Ethanol, reference compound]

Structure (SMILES): CCCCCCCCCCCC(=O)O [Lauric Acid]
- Effect Against Production of Azelastine Hydrates ([1]; amount added 0.5%): .largecircle.

Structure (SMILES): CC(C)CCCCCCCCCCCCCCC(=O)O [Isostearic Acid]
- Effect Against Production of Azelastine Hydrates ([1]; amount added 0.5%): .largecircle.

- Effect Against Production of Azelastine Hydrates ([1]; amount added 0.5%): .largecircle.
Structure (SMILES): CCCCCCCCCCCCCCCC(=O)O [Palmitic Acid]

Structure (SMILES): CN1CCCC(n2nc(Cc3ccc(Cl)cc3)c3ccccc3c2=O)CC1 (stereo not drawn) [azelastine]
- acid dissociation constant (pKa) [5]: approximately 9.5

- suppression of the production of azelastine hydrate (in words) [1]: not exhibited
- Effect Against Production of Azelastine Hydrates ([1]; amount added 0.3%): X
Structure (SMILES): CCC(=O)O [Propionic Acid, reference compound]

Structure (SMILES): CCCCCCCC/C=C\CCCCCCCC(=O)O [Oleic Acid]
- Effect Against Production of Azelastine Hydrates ([1]; amount added 0.1%): Δ
- Effect Against Production of Azelastine Hydrates ([1]; amount added 0.3%): .largecircle.
- Effect Against Production of Azelastine Hydrates ([1]; amount added 1% (1 or 1.0)): .largecircle.

Structure (SMILES): CCCCCC(=O)O [Caproic Acid, reference compound]
- Effect Against Production of Azelastine Hydrates ([1]; amount added 0.5%): X

- suppression of the production of azelastine hydrate (in words) [1]: not exhibited
- Effect Against Production of Azelastine Hydrates ([1]; amount added 0.5%): X
Structure (SMILES): CC(=O)O [Acetic Acid, reference compound]

- Effect Against Production of Azelastine Hydrates ([1]; amount added 0.5%): .largecircle.
Structure (SMILES): CCCCCC/C=C\CCCCCCCC(=O)O [Palmitoleic Acid]

Structure (SMILES): CN1CCCC(n2nc(Cc3ccc(Cl)cc3)c3ccccc3c2=O)CC1 (stereo not drawn) [azelastine hydrate]
- solubility ([3]; in aqueous preparation, crystalline hydrates of non-dissociation type molecules): poor solubility

— US6117864A, “Methods employing stable preparation containing azelastine hydrochloride” (ASTA Medica Aktiengesellschaft, priority 1992, dated 2000)
